Measured values taken from ChEMBL document CHEMBL1201862, “PubChem BioAssay data set” (2004).
Each block holds one molecule with its values, some of them ahead of it. Activity calls are given as the source filed them.

Key:
HEK293 = experiment: EBV LMP1 TES2 canonical NF-kB signalling blockers – cell-based, HEK293, luciferase, cherry-pick, dose response (AID 588343); format: functional; conditions: Homo sapiens
Cytochrome P450 2C9 = Cytochrome P450 2C9 (Homo sapiens, UniProt P11712)
Cytochrome P450 3A4 = Cytochrome P450 3A4 (Homo sapiens, UniProt P08684);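 note: CYP3A4 tested as one member of a cytochrome P450 panel screen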
Chain of Cytochrome P450 3A4 (P08684 whole entry): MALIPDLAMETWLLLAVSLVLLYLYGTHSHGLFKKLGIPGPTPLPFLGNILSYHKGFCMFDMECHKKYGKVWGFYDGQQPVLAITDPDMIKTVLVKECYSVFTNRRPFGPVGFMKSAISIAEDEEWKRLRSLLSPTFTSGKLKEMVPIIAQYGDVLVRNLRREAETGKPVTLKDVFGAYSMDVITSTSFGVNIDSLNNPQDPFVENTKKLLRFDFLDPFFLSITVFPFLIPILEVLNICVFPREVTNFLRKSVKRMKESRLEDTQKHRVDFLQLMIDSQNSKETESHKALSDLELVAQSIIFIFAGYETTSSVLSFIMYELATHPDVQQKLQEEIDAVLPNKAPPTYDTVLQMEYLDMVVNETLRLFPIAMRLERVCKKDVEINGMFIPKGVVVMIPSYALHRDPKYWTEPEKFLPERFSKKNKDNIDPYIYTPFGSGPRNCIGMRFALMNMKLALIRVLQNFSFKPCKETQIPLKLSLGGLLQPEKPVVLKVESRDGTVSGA

[1] = target: Dual specificity tyrosine-phosphorylation-regulated kinase 1A (Rattus norvegicus, UniProt Q63470); format: biochemical, Homo sapiens
[2] = target: T1, Microphthalmia-associated transcription factor (Homo sapiens, UniProt O75030); experiment: reducers of TRPM1 reporter luminescence, concentration series – cell-based, SK-MEL-5, cherry-picked, set 3, MITF inhibitor project, dose response (AID 493073); format: functional;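 note: SK-MEL-5 melanoma cells with luciferase driven by the MITF target TRPM1 promoter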
T1 sequence (O75030 whole entry): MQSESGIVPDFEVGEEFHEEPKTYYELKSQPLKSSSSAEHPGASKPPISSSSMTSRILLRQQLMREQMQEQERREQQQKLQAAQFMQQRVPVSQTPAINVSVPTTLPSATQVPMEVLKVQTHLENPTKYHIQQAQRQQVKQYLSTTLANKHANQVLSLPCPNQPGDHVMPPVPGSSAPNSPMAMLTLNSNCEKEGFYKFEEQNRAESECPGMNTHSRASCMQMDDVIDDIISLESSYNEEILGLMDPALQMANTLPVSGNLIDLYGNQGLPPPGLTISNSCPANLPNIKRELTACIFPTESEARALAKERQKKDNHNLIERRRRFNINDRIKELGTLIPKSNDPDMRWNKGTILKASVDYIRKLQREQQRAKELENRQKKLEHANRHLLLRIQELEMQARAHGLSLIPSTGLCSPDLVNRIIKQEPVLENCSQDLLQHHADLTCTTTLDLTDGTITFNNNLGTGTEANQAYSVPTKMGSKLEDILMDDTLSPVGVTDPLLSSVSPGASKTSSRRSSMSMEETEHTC

[3] = Luminescence Cell-Based Dose Retest to Confirm Inhibitors of Cancer Stem Cells. [Related pubchem assays (depositor defined):AID2717, AID2721]; format: functional; conditions: Homo sapiens
[4] = viability of PTEN-deleted HCT116 cells – cell-based, HCT116 PTEN knockout, dose response (AID 1047); format: functional;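 note: HCT116 colon tumor cells with PTEN knocked out; cells exposed to compound for 60 hours before readout; potency for loss of cell viability measured by luminescence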
A-375 = experiment: proliferation inhibition in MITF-low A375 cells – cell-based, cherry-pick samples, set 2, counter-screen for MITF modulator project, dose response (AID 540335); format: functional; conditions: Homo sapiens
[5] = viability of HCT116 lacking mutant beta-catenin – cell-based, human colon tumor, dose response (AID 1045); format: functional;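 note: HCT116 colon tumor cells with beta catenin knocked out; cells exposed to compound for 60 hours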
INS1 = experiment: INS-1E survival protection against cytokine death – cell-based, luminescence, retest, dose response (AID 449756); format: functional; conditions: Rattus norvegicus;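 note: cell death triggered by IL-1 beta plus TNF-alpha plus IFN-gamma mixture; protective hits raise ATP signal compared with cytokine alone wells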
Vero = experiment: viability of Vero cells under compound – cytotoxicity control for flavivirus capping enzyme inhibitors (AID 588742); format: functional; conditions: Chlorocebus sabaeus
Escherichia coli = experiment: microbe, parasite or virus in culture
[6] = target: T2, Sentrin-specific protease 8 (Homo sapiens, UniProt Q96LD8); format: functional;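 note: luminescence read-out of SENP8 inhibition, dose-response confirmation following an ultra-high-throughput screen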
T2 sequence (Q96LD8 whole entry): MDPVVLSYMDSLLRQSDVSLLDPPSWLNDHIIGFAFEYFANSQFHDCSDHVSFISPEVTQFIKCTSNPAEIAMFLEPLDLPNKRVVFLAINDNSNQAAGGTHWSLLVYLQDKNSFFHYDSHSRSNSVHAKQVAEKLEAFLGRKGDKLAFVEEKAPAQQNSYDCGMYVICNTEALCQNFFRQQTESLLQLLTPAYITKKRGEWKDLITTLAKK

[7] = NIH-3T3 fibroblast cytotoxicity, dose response, cytotoxicity control, cell-based, fluorescence, Alamar Blue, secondary assay (AID 2327); format: functional;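 note: NIH-3T3 mouse fibroblasts cultured with fluconazole at 8 µg/mL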
[8] = target: T3, Sentrin-specific protease 7 (Homo sapiens, UniProt Q9BQF6); format: functional;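 note: Luminescence-based dose-response confirmation of ultra-high-throughput screening hits, measuring inhibition of SENP7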
T3 sequence (Q9BQF6 whole entry): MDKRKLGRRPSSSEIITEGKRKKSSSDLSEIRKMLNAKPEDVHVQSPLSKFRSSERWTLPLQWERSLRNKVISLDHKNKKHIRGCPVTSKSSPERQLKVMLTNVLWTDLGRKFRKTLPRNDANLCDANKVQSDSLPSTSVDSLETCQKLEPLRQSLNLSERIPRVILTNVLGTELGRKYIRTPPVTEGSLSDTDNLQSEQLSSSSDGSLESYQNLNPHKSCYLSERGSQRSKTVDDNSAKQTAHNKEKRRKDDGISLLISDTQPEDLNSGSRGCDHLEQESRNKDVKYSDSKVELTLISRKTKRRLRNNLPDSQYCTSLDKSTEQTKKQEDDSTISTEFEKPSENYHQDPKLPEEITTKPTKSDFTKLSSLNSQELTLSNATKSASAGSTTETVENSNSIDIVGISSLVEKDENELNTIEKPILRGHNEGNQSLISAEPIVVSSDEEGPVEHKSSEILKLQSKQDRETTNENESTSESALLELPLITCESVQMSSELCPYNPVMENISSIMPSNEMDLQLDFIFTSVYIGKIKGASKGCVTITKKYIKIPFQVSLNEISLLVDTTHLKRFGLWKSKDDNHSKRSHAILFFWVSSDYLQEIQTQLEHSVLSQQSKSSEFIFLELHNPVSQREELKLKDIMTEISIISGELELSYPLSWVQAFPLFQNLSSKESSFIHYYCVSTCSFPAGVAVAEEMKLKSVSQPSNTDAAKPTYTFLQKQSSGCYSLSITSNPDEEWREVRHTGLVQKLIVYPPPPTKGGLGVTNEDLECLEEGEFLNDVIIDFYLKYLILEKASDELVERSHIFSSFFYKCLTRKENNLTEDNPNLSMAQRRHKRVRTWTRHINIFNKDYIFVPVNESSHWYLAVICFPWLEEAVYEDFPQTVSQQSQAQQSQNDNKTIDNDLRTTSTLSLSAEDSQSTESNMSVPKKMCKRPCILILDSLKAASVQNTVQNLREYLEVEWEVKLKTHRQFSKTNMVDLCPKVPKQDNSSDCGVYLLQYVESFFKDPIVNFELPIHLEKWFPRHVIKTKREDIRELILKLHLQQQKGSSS

Caspase-3 = target: T4, Caspase-3 (Homo sapiens, UniProt P42574); format: functional;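 note: Dose-response selectivity test against caspase-3 for candidate inhibitors of sentrin-specific proteases (SENPs)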
T4 sequence (P42574 whole entry): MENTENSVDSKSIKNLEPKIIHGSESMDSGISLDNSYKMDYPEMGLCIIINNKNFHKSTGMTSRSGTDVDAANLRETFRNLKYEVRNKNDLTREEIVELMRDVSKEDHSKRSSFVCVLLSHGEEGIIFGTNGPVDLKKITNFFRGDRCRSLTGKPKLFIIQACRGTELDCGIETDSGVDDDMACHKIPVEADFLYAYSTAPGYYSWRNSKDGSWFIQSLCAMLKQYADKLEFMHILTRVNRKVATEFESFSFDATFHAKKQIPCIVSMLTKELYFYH

[9] = fluconazole-exposed Candida albicans growth modulators – fluorescence, retest, confirmation (AID 2467); format: functional, cell-based
[10] = target: T5, Sentrin-specific protease 6 (Homo sapiens, UniProt Q9GZR1); format: functional;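 note: Luminescence-based dose-response confirmatory assay of SENP6 inhibition, following up an ultra-high-throughput screen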
T5 sequence (Q9GZR1 whole entry): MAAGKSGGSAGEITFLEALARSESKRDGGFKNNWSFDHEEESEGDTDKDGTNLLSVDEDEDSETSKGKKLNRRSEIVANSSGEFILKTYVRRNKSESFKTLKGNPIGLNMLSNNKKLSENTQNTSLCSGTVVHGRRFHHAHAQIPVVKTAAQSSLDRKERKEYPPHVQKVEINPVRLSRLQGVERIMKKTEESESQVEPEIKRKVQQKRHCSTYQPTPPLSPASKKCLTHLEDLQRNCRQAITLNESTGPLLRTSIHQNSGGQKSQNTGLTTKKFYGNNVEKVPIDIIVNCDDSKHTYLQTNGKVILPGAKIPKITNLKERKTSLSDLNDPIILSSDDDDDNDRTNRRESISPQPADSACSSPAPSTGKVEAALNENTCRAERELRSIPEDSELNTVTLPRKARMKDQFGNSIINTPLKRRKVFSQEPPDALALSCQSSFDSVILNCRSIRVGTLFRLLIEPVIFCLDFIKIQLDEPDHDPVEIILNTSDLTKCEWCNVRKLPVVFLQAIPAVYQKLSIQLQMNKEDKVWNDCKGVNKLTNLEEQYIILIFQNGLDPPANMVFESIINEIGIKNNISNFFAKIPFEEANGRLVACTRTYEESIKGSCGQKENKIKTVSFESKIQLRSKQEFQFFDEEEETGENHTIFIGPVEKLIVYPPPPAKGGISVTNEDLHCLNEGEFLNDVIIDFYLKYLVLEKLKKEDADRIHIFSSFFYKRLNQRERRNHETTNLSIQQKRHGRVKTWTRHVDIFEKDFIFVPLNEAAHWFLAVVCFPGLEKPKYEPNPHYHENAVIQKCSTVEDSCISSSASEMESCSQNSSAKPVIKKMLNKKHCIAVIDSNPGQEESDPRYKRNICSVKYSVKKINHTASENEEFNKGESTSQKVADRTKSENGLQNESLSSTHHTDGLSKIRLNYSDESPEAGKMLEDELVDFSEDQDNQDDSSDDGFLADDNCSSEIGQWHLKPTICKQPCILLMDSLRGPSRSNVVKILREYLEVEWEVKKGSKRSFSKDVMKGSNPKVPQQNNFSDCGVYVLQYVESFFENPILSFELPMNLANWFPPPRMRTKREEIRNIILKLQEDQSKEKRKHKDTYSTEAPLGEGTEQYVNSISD

Leucine aminopeptidase = target: T6, Leucine aminopeptidase (Plasmodium falciparum 3D7, UniProt Q8IL11); experiment: P. falciparum M17LAP inhibitors, primary screen, biochemical, fluorogenic H-Leu-NHMec substrate, 1536-well (AID 1619); format: functional
T6 sequence (Q8IL11 whole entry): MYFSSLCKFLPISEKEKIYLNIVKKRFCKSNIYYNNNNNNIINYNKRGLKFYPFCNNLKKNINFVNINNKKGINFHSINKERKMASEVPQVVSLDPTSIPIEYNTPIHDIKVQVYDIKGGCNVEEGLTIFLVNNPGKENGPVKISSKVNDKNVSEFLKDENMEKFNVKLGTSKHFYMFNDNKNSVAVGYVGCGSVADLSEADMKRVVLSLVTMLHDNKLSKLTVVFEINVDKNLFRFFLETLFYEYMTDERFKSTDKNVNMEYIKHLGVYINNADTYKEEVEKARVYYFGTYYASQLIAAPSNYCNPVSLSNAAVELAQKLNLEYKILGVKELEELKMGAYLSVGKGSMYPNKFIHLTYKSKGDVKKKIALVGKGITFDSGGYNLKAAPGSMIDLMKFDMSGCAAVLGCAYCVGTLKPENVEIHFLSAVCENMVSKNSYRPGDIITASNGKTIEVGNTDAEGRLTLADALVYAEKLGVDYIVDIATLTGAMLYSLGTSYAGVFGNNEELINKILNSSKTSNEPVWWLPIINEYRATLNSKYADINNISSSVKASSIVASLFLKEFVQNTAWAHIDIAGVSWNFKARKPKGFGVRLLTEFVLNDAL

[11] = target: T7, RNA-binding protein pos-1 (Caenorhabditis elegans, UniProt G5EF15); experiment: disruptors of C. elegans POS-1 RNA interaction – biochemical, fluorescence polarization, dose response (AID 1964);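 note: purified POS-1 fused to maltose binding protein made in E. coli; potency of compounds blocking POS-1 binding to fluorescent RNA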
T7 sequence (G5EF15 whole entry): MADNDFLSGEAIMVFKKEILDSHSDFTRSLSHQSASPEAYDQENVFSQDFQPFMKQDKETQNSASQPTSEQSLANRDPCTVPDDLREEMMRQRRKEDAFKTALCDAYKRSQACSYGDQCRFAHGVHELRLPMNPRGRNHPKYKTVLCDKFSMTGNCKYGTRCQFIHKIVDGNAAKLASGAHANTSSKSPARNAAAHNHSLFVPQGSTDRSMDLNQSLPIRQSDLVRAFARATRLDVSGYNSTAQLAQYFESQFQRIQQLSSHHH

[12] = target: T8, Zinc finger protein mex-5 (Caenorhabditis elegans, UniProt Q9XUB2); experiment: potency of MEX-5 RNA-binding blockers – biochemical, C. elegans, fluorescence polarization, dose response (AID 1960)
T8 sequence (Q9XUB2 whole entry): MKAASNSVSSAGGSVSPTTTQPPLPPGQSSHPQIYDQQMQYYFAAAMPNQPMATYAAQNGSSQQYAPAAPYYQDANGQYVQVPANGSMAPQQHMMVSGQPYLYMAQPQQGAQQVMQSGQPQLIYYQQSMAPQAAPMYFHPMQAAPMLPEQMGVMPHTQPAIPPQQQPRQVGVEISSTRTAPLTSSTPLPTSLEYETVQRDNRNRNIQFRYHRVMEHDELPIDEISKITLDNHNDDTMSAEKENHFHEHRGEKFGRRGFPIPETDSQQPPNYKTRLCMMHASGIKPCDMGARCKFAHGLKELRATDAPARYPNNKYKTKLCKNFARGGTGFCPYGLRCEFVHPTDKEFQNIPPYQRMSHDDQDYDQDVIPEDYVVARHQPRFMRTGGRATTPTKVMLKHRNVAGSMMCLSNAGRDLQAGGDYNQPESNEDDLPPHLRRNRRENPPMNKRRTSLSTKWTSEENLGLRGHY

Chain of Cytochrome P450 2C9 (P11712 whole entry): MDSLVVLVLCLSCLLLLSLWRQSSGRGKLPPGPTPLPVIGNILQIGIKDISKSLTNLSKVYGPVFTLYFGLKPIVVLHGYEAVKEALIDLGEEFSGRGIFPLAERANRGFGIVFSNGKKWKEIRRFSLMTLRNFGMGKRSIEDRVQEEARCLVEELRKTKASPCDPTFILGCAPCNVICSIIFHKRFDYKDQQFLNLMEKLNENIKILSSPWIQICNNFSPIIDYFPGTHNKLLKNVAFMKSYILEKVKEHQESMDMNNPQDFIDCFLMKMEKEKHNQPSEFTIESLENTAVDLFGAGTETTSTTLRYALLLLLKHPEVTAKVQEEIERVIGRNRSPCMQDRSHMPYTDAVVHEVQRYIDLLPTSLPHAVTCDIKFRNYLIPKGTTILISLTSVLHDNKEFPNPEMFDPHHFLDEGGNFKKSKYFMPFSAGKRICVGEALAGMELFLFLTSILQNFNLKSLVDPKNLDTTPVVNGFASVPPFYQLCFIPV

Structure (SMILES): O=C(O)/C=C/c1ccc2ccccc2n1
AC50 (HEK293): 47.7 µM (active)

AC50 (Cytochrome P450 2C9): inconclusive | AC50 (Cytochrome P450 3A4): inconclusive
Structure (SMILES): C=CCNc1sc(C(=O)c2ccccc2)c(N)c1C#N

AC50 [1]: 0.235 µM (active)
Structure (SMILES): Cc1nc(COc2ccccc2Cl)sc1-c1ccnc(N)n1

Structure (SMILES): CN(C)CCNC(=O)/C(=C/c1ccc(-c2ccc(Cl)cc2Cl)o1)NC(=O)c1ccccc1
AC50 [2]: 4.97 µM (active) | AC50 [3]: 6.63 µM (active) | EC50 [4]: 5.71 µM (active) | AC50 (A-375): 18.9 µM (active) | EC50 [5]: 4.99 µM (active) | AC50 (INS1): 7.89 µM (active)

AC50 [1]: 7.72 µM (active)
Structure (SMILES): COc1cc(/C=C2\SC(=O)NC2=O)ccc1Oc1ccc([N+](=O)[O-])cc1[N+](=O)[O-]
CC50 (Vero): > 40 µM (active)

Structure (SMILES): CCC(CC)C(=O)Nc1nnc(S(=O)(=O)N2CCCCCC2)s1
AC50 (Escherichia coli): 29.7 µM (active)

Structure (SMILES): CCCCCc1ccc(-c2ccc(/C=C/C(=O)O)cc2)nc1
IC50 [6]: 8.8 µM (active) | EC50 [7]: > 160 µM (inconclusive) | IC50 [8]: 6.37 µM (active) | AC50 (HEK293): 20.8 µM (active) | IC50 (Caspase-3): 35.4 µM (active) | EC50 [9]: 2.03 µM (active) | IC50 [10]: 11.2 µM (active)

Structure (SMILES): COC(=O)C1=C(C)N(Cc2ccccc2)C(NCc2ccccc2)=N[C@H]1c1ccccc1
AC50 [2]: 18 µM (active) | AC50 (A-375): 23.7 µM (active)

Structure (SMILES): CCn1c2ccccc2c2cc(/C=N/n3c(C)nnc3C)ccc21
AC50 (HEK293): 34.2 µM (active)

IC50 (Leucine aminopeptidase): 48.5 µM (active) | EC50 [11]: > 300 µM (not active) | EC50 [12]: 23.9 µM (active) | AC50 [1]: 12 µM (active)
Structure (SMILES): COc1ccc(Nc2ncnc3nc[nH]c23)cc1OC
